Results: paper PMC10882491 (Chemical Science, 2024)
Values belong to the compound of their own block, whether it stands above or below them.

Tests used:
[1] = biological target: PIP4K2C (Homo sapiens, UniProt Q8TBX8); experiment: NanoBRET target engagement in living HEK293 cells; assay type: cell-based
[2] = biological target: T1, AURKA (Homo sapiens, UniProt O14965); experiment: single-temperature TPP with PRM-MS in K562 lysate; assay type: cell-based
T1 sequence (O14965 1-403): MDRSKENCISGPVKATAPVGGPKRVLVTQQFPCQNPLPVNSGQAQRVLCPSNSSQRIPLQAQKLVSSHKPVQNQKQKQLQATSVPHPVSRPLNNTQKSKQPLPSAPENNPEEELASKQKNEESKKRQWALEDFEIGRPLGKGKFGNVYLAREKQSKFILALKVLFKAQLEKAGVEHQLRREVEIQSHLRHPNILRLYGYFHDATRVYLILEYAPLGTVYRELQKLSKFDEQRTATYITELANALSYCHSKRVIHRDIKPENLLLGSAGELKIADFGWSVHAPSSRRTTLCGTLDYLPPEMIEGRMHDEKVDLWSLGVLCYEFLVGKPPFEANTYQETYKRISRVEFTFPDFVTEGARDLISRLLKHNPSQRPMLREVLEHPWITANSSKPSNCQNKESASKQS

[3] = biological target: T2, GRK2 (Homo sapiens, UniProt P25098); experiment: western blot CETSA, isothermal dose-response at […] °C; assay type: biochemical
T2 sequence (P25098 1-689): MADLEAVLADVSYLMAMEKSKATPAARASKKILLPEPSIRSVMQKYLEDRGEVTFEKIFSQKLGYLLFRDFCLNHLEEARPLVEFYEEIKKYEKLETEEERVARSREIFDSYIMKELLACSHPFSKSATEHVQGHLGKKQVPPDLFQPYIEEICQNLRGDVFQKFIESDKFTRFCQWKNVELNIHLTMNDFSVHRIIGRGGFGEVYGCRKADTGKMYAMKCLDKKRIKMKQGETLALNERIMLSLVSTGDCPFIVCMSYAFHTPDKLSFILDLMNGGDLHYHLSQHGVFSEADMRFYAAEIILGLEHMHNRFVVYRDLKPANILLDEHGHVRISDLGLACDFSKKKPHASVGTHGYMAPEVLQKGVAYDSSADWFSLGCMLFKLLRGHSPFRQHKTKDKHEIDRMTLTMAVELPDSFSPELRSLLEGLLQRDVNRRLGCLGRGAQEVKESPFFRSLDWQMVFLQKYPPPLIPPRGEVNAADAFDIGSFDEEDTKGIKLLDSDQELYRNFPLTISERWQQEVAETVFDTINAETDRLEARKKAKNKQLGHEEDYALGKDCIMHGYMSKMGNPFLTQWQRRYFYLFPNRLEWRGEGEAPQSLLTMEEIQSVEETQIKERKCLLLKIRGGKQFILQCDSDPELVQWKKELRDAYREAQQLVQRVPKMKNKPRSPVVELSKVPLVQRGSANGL

PIP4K2C, sequence (Q8TBX8 2-421): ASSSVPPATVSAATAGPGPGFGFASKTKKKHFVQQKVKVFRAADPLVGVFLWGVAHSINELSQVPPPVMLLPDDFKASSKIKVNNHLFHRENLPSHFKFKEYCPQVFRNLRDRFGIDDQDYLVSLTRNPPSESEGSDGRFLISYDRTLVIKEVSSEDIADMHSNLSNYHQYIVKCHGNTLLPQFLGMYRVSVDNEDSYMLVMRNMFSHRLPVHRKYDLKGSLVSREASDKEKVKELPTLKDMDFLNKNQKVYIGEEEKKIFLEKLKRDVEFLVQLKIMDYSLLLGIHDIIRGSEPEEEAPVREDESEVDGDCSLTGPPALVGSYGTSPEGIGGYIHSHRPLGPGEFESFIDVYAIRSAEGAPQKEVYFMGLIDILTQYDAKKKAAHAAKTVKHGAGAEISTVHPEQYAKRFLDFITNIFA

IC50 [1]: 0.25 µM
SMILES: NC(=O)c1nc(Nc2ccccc2)sc1NC(=O)C1CCCCC1 [UNC3230]

SMILES: COc1cc(Nc2ncc3c(n2)-c2ccc(Cl)cc2C(c2c(F)cccc2OC)=NC3)ccc1C(=O)O [alisertib]
single-temperature TPP with PRM-MS in K562 lysate [2]: PRM data confirmed that all of these targets exhibit significantly higher abundance in the drug treatment groups

IC50 [3]: 6.7 µM
SMILES: Cc1nc2ccc(CN(C)c3ccc(C(=O)N[C@@H](CCC(=O)O)C(=O)O)s3)cc2c(=O)[nH]1 [raltitrexed]
